This is an account of results in ChEMBL document CHEMBL1126360, “-Amino acid analogues as mechanism-based inactivators of -aminobutyric acid aminotransferase” (Bioorg Med Chem Lett, 1992).

4-aminobutyrate aminotransferase, mitochondrial (Sus scrofa), sequence (P80147 whole entry): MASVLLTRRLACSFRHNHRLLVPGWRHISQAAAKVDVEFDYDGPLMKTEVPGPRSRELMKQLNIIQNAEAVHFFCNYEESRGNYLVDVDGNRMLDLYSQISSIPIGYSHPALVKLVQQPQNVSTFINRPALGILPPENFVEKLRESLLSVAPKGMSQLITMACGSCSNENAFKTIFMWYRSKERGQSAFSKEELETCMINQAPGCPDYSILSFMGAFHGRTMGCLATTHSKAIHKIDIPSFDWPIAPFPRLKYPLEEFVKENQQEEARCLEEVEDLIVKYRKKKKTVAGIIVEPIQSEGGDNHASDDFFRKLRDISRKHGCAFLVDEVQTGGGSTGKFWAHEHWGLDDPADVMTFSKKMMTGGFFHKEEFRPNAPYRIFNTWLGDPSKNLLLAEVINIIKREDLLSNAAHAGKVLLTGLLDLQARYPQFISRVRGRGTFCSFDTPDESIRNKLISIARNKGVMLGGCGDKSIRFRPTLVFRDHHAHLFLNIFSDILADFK
4-aminobutyrate aminotransferase, mitochondrial, sequence (P80147 whole entry): as above

The first test addresses 4-aminobutyrate aminotransferase, mitochondrial (Sus scrofa) (UniProt P80147). In words: Rate constants for inactivation at infinite concentration for inactivation of Gamma-amino-N-butyrate transaminase.
As for `N[C@@H](COS(=O)(=O)O)C(=O)O`, the K inact was found to be 0.0055 min⁻¹.
Still for that read-out and setting: the same measure for `C[C@](N)(CF)C(=O)O`: 0.00059 min⁻¹.
`C[C@](N)(CCl)C(=O)O` yielded a K inact of 0.00093 min⁻¹.
Consider `C[C@](N)(COP(=O)(O)O)C(=O)O`, for which the K inact turned out to be 0.0014 min⁻¹.
In the case of `C=C[C@](C)(N)C(=O)O`, the K inact came to 8.5e-05 min⁻¹.

The next test addresses 4-aminobutyrate aminotransferase, mitochondrial (Sus scrofa, UniProt P80147). Put plainly: Apparent dissociation constants for inactivation of Gamma-amino-N-butyrate transaminase.
In the case of `N[C@@H](COS(=O)(=O)O)C(=O)O`, the Ki is 2.4 mM.
On the same count and under the same terms, the same measure for `C[C@](N)(CF)C(=O)O`: 6.8 mM; for `C[C@](N)(CCl)C(=O)O`: 6.5 mM; for `C[C@](N)(COP(=O)(O)O)C(=O)O`: 5.7 mM.
Regarding `C=C[C@](C)(N)C(=O)O`, the Ki was 12.8 mM.
